These results are taken from US11312713B2, “Imidazo[4,5-C]quinoline derivatives as LRRK2 inhibitors” (Pfizer Inc., priority 2017, dated 2022).

The term IC50 denotes the concentration at which inhibition is half-maximal.

For experiment [1], the target named is LRRK2, WT (GST-tagged truncated LRRK2) (Homo sapiens, UniProt Q5S007). Description: LRRK2 kinase assay (LanthaScreen), wild type. The format is biochemical. The following applies: wild type LRRK2. How it is done:
(§1) LRRK2 kinase activity was measured using Lantha Screen technology from Invitrogen. GST-tagged truncated LRRK2 from Invitrogen (Cat #PV4874) was incubated with a fluorescein-labeled peptide substrate based upon ezrin/radixin/moesin (ERM), also known as LRRKtide (Invitrogen cat #PR8976A), in the presence of a dose response of compound. Upon completion, the assay was stopped and detected with a terbium labeled anti-phospho-ERM antibody (Invitrogen, cat #PR8975A). […] Using Echo acoustic dispensing, 60 nL of compound was transferred to a low volume Corning 384-well assay plate. 3 μL of a working solution of substrate (200 nM LRRKtide, 2 mM ATP) prepared in assay buffer (50 mM HEPES, pH 7.5, 3 mM MgCl2, with 2 mM DTT and 0.01% Brij35 added fresh) was added to the 60 nL compound assay plate. The kinase reaction was started with 3 μL of a working solution of LRRK2 enzyme at a concentration of 4 μg/m L. The final reaction concentrations were 100 nM LRRKtide, 1 mM ATP, 2 μg/mL LRRK2 enzyme and a compound dose response with a top dose of 3 μM. The reaction was allowed to progress at room temperature for 30 minutes and then stopped with the addition of 6 μL of detection buffer (20 mM Tris pH 7.6, 0.01% NP-40, 6 mM EDTA with 2 nM terbium labeled antiphospho-ERM). […] All final concentrations of substrate ATP and enzyme were the same.
Background: Time-resolved FRET reads energy transfer from a long-lived donor to a nearby acceptor.

Experiment [2] deals with mutant G2019S LRRK2 (Homo sapiens (Human), UniProt Q5S007, G2019S). Description: LRRK2 kinase assay (LanthaScreen), G2019S mutant. The following applies: G2019S mutant LRRK2, read-out: LRRK2, G2019S IC50. Type of experiment: biochemical. How it is done: as §1
Setting [3] is: LanthaScreen, LRRKtide substrate.
Setting [4] is: data obtained using the formate salt of the Example.

Read-outs that look alike come from different tables or passages of the source.

Chain of mutant G2019S LRRK2 (Q5S007 whole entry G2019S): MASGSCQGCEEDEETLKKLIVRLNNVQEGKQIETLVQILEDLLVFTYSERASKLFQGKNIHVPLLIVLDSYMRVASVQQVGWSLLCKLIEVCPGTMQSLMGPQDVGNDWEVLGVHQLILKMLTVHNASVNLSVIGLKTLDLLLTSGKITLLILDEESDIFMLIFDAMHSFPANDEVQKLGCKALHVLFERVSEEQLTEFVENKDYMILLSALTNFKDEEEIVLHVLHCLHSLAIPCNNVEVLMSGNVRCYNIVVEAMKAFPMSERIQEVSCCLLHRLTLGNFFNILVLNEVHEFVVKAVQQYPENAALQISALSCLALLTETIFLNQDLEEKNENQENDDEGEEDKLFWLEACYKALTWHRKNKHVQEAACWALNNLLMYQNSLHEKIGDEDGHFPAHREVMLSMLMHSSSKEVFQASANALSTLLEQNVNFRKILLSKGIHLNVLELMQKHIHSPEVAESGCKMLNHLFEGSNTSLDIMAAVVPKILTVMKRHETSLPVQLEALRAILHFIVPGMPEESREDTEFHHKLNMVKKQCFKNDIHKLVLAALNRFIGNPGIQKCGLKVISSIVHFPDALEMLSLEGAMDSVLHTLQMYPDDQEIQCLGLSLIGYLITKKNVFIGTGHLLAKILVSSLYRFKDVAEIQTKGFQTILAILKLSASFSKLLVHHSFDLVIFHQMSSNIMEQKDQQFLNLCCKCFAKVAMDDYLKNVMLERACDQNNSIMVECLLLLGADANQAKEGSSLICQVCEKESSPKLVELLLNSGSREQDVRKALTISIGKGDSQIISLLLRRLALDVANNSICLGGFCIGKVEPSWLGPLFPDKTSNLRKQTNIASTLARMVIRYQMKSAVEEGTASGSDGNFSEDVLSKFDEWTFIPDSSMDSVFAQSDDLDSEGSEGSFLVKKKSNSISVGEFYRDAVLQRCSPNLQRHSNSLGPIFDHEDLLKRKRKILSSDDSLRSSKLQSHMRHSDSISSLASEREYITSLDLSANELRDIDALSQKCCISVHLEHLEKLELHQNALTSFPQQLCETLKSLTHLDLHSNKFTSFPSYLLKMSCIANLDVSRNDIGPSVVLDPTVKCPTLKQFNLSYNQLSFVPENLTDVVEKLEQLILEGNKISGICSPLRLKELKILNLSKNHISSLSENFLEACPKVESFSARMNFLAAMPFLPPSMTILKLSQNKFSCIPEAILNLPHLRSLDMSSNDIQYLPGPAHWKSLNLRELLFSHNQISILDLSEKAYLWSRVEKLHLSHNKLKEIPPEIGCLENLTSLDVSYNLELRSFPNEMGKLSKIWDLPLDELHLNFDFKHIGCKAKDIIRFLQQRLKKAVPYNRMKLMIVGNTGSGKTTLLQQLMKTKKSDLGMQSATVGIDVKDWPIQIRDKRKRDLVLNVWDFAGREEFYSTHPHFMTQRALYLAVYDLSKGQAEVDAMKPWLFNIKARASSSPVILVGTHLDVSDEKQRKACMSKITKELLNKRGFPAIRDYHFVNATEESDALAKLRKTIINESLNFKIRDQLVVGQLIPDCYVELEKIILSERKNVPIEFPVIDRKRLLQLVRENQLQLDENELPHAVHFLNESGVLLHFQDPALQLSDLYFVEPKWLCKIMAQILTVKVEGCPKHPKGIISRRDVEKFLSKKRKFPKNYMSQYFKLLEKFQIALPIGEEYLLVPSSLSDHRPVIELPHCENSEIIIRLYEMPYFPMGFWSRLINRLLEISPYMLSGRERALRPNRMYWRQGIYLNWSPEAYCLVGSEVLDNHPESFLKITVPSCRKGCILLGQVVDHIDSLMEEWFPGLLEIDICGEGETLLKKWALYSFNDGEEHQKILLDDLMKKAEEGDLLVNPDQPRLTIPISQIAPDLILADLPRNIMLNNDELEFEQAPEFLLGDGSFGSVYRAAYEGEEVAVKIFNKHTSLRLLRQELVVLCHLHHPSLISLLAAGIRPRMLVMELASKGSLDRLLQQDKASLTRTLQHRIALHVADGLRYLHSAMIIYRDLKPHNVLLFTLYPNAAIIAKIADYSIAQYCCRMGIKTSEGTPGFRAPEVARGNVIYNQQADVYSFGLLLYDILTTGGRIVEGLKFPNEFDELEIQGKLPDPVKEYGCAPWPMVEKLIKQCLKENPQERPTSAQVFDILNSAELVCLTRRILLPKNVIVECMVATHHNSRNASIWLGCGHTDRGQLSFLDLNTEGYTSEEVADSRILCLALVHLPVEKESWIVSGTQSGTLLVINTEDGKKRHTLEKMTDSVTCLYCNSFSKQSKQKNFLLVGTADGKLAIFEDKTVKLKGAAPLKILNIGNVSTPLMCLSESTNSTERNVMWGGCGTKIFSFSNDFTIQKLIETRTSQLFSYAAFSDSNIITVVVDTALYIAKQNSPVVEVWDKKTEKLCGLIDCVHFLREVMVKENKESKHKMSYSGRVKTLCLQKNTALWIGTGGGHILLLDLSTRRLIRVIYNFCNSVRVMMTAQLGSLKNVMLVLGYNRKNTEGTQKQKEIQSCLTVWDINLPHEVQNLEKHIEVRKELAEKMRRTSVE

As to `Cc1cnc(Cc2nc3cnc4ccc(C#N)cc4c3n2[C@@H]2CCN(C)C2)o1` [Example 38, 2-[(5-methyl-1,3-oxazol-2-yl)methyl]-1-[(3R)-1-methylpyrrolidin-3-yl]-1H-imidazo [4,5-c]quinoline-8-carbonitrile], the values for the IC50 in experiment [1] (setting [3]) and in experiment [2] (setting [3]) were 7.49 nM and 12.9 nM, respectively.
Turning to `Cc1cc(Cc2nc3cnc4ccc(Cl)cc4c3n2C2CN(C)CC2(F)F)no1` (centres unmarked) [Example 51, 8-chloro-1-(4,4-difluoro-1-methylpyrrolidin-3-yl)-2-[(5-methyl-1,2-oxazol-3-yl)methyl]-1H-imidazo[4,5-c]quinoline], the IC50 came to 5.78 nM in experiment [1] (setting [3]) and 3.49 nM in experiment [2] (setting [3]).
Regarding `CN1CC(n2c(Cn3cnnn3)nc3cnc4ccc(Cl)cc4c32)C(F)(F)C1` (centres unmarked) [Example 83, 8-chloro-1-(4,4-difluoro-1-methylpyrrolidin-3-yl)-2-(1H-tetrazol-1-ylmethyl)-1H-imidazo[4,5-c]quinoline], the IC50 in experiment [1] (setting [3]) was determined as 7.91 nM; in experiment [2] (setting [3]), 11.6 nM.
In the case of `Cc1cnc(Cc2nc3cnc4ccc(C(F)(F)F)cc4c3n2[C@@H]2CCO[C@H](C)C2)cn1` [Example 29, 2-[(5-methylpyrazin-2-yl)methyl]-1-[(2R,4R)-2-methyltetrahydro-2H-pyran-4-yl]-8-(trifluoromethyl)-1H-imidazo[4,5-c]quinoline], the results for the concentration for half-maximal inhibition (IC50) in experiment [1] (setting [3]) and in experiment [2] (setting [3]) were 6.47 nM and 4.13 nM, respectively.
In the case of `C[C@@H]1C[C@H](n2c(Cc3cnc(CO)cn3)nc3cnc4ccc(Cl)cc4c32)CCO1` [Example 95, [5-({8-chloro-1-[(2R,4R)-2-methyltetrahydro-2H-pyran-4-yl]-1H-imidazo[4,5-c]quinolin-2-yl}methyl)pyrazin-2-yl]methanol], the IC50 in experiment [1] (setting [3]) was determined as 4.6 nM; in experiment [2] (setting [3]) it was 3.5 nM.
`Cc1cc(Cc2nc3cnc4ccc(C(F)F)cc4c3n2[C@@H]2CCO[C@H](C)C2)no1` [Example 91, 8-(difluoromethyl)-2-[(5-methyl-1,2-oxazol-3-yl)methyl]-1-[(2R,4R)-2-methyltetrahydro-2H-pyran-4-yl]-1H-imidazo[4,5-c]quinoline]: the IC50 stood at 18 nM in experiment [1] (setting [3]) and 8.4 nM in experiment [2] (setting [3]).
For `C[C@@H]1C[C@H](n2c(Cc3csnn3)nc3cnc4ccc(C(F)(F)F)cc4c32)CCO1` [Example 63, 1-[(2R,4R)-2-methyltetrahydro-2H-pyran-4-yl]-2-(1,2,3-thiadiazol-4-ylmethyl)-8-(trifluoromethyl)-1H-imidazo[4,5-c]quinoline], the IC50 stood at 6.96 nM in experiment [1] (setting [3]) and 3.04 nM in experiment [2] (setting [3]).
Turning to `Cc1nc(Cc2nc3cnc4ccc(Cl)cc4c3n2[C@@H]2CCN(C)C2)no1` [Example 42, 8-chloro-2-[(5-methyl-1,2,4-oxadiazol-3-yl)methyl]-1-[(3R)-1-methylpyrrolidin-3-yl]-1H-imidazo[4,5-c]quinoline], the half-inhibitory concentration (IC50) in experiment [1] (setting [3]) is 12.9 nM; in experiment [2] (setting [3]), 26 nM.
Turning to `CN1CC(n2c(Cc3ncn(C)n3)nc3cnc4ccc(Cl)cc4c32)C(F)(F)C1` (centres unmarked) [Example 84, 8-chloro-1-(4,4-difluoro-1-methylpyrrolidin-3-yl)-2-[(1-methyl-1H-1,2,4-triazol-3-yl)methyl]-1H-imidazo[4,5-c]quinoline], the IC50 in experiment [1] (setting [3]) was 10.2 nM; in experiment [2] (setting [3]), 18.2 nM.
As for `Cc1nnn(Cc2nc3cnc4ccc(Cl)cc4c3n2C2CN(C)CC2(F)F)n1` (centres unmarked) [Example 49, 8-chloro-1-(4,4-difluoro-1-methylpyrrolidin-3-yl)-2-[(5-methyl-2H-tetrazol-2-yl)methyl]-1H-imidazo[4,5-c]quinoline], the IC50 is 4.48 nM in experiment [1] (setting [3]) and 1.34 nM in experiment [2] (setting [3]).
In the same order, the values of `Cc1cc(Cc2nc3cnc4ccc(Cl)cc4c3n2[C@@H]2CCN(C)C2)ncn1` [Example 40, 8-chloro-2-[(6-methylpyrimidin-4-yl)methyl]-1-[(3R)-1-methylpyrrolidin-3-yl]-1H-imidazo[4,5-c]quinoline] are 9.73 nM and 13.9 nM.
For the molecule `Cc1cn(Cc2nc3cnc4ccc(Cl)cc4c3n2C2CN(C)CC2(F)F)nn1` (centres unmarked) [Example 82, 8-chloro-1-(4,4-difluoro-1-methylpyrrolidin-3-yl)-2-[(4-methyl-1H-1,2,3-triazol-1-yl)methyl]-1H-imidazo[4,5-c]quinoline], the IC50 was 6.33 nM in experiment [1] (setting [3]) and 4.64 nM in experiment [2] (setting [3]).
With `Cc1cnc(C(O)c2nc3cnc4ccc(Cl)cc4c3n2[C@@H]2CCO[C@H](C)C2)cn1` (single isomer, unassigned) [Example 15], the figures for the IC50 in experiment [1] (setting [3]) and in experiment [2] (setting [3]) were 16.3 nM and 18.4 nM, respectively.
Take `Cc1nnn(Cc2nc3cnc4ccc(C(F)(F)F)cc4c3n2[C@@H]2CCO[C@H](C)C2)n1` [Example 81, 1-[(2R,4R)-2-methyltetrahydro-2H-pyran-4-yl]-2-[(5-methyl-2H-tetrazol-2-yl)methyl]-8-(trifluoromethyl)-1H-imidazo[4,5-c]quinoline]: the IC50 in experiment [1] (setting [3]) was 16.9 nM; in experiment [2] (setting [3]), 7.5 nM.
For the molecule `CCc1nc2cnc3ccc(Cl)cc3c2n1[C@@H]1CCO[C@H](CC#N)C1` [Example 1, [(2S,4R)-4-(8-Chloro-2-ethyl-1H-imidazo[4,5-c]quinolin-1-yl)tetrahydro-2H-pyran-2-yl]acetonitrile], the IC50 in experiment [1] (setting [3]) came to 10.2 nM; in experiment [2] (setting [3]), 8.87 nM.
In the same order, the values of `C[C@@H]1C[C@H](n2c(Cc3cnc(C(F)(F)F)cn3)nc3cnc4ccc(F)cc4c32)CCO1` [Example 73, 8-fluoro-1-[(2R,4R)-2-methyltetrahydro-2H-pyran-4-yl]-2-{[5-(trifluoromethyl)pyrazin-2-yl]methyl}-1H-imidazo[4,5-c]quinoline] are 16.9 nM and 13 nM.
As to `C[C@@H]1C[C@H](n2c(Cc3cnc(C(F)(F)F)cn3)nc3cnc4ccc(C#N)cc4c32)CCO1` [Example 39, 1-[(2R,4R)-2-methyltetrahydro-2H-pyran-4-yl]-2-{[5-(trifluoromethyl)pyrazin-2-yl]methyl}-1H-imidazo[4,5-c]quinoline-8-carbonitrile], the IC50 in experiment [1] (setting [3]) came out at 17.4 nM; in experiment [2] (setting [3]), 9.3 nM.
`Cc1cnn(Cc2nc3cnc4ccc(Cl)cc4c3n2C2CN(C)CC2(F)F)n1` (centres unmarked) [Example 87, 8-chloro-1-(4,4-difluoro-1-methylpyrrolidin-3-yl)-2-[(4-methyl-2H-1,2,3-triazol-2-yl)methyl]-1H-imidazo[4,5-c]quinoline]: the results for the IC50 in experiment [1] (setting [3]) and in experiment [2] (setting [3]) were 7.04 nM and 4.51 nM, respectively.
With `Cc1cc(Cc2nc3cnc4ccc(C#N)cc4c3n2[C@@H]2CC[C@H](F)C2)no1` (racemic) [Example 68, 1-[cis-3-fluorocyclopentyl]-2-[(5-methyl-1,2-oxazol-3-yl)methyl]-1H-imidazo[4,5-c]quinoline-8-carbonitrile], the values for the IC50 in experiment [1] (setting [4]) and in experiment [2] (setting [4]) were 8.32 nM and 12.3 nM, respectively.
For the molecule `COc1cnn(Cc2nc3cnc4ccc(C(F)(F)F)cc4c3n2[C@@H]2CCO[C@H](C)C2)c1` [Example 41, 2-[(4-methoxy-1H-pyrazol-1-yl)methyl]-1-[(2R,4R)-2-methyltetrahydro-2H-pyran-4-yl]-8-(trifluoromethyl)-1H-imidazo[4,5-c]quinoline], the results for the IC50 in experiment [1] (setting [3]) and in experiment [2] (setting [3]) were 11.1 nM and 3.87 nM, respectively.
Take `Cc1cnc(Cc2nc3cnc4ccc(Cl)cc4c3n2[C@@H]2CCN(C)C2)cn1` [Example 67, 8-chloro-2-[(5-methylpyrazin-2-yl)methyl]-1-[(3R)-1-methylpyrrolidin-3-yl]-1H-imidazo[4,5-c]quinoline]: the IC50 in experiment [1] (setting [3]) stood at 8.03 nM; in experiment [2] (setting [3]), 8.55 nM.
For the molecule `Cc1cc(Cc2nc3cnc4ccc(Cl)cc4c3n2C2CN(C)CC2(F)F)no1` (centres unmarked) [Example 52, 8-chloro-1-(4,4-difluoro-1-methylpyrrolidin-3-yl)-2-[(5-methyl-1,2-oxazol-3-yl)methyl]-1H-imidazo[4,5-c]quinoline], the values for the IC50 in experiment [1] (setting [3]) and in experiment [2] (setting [3]) were 15.1 nM and 12.9 nM, respectively.
For the molecule `N#CCC1CC(n2c(C3CCC3)nc3cnc4ccc(Cl)cc4c32)CCO1` (single isomer, unassigned) [Example 11, [cis-4-(8-Chloro-2-cyclobutyl-1H-imidazo[4,5-c]quinolin-1-yl)tetrahydro-2H-pyran-2-yl]acetonitrile], the values for the IC50 in experiment [1] (setting [3]) and in experiment [2] (setting [3]) were 18 nM and 5.06 nM, respectively.
As for `C[C@@H]1C[C@H](n2c(Cc3nccs3)nc3cnc4ccc(C#N)cc4c32)CCO1` [Example 61, 1-[(2R,4R)-2-methyltetrahydro-2H-pyran-4-yl]-2-(1,3-thiazol-2-ylmethyl)-1H-imidazo[4,5-c]quinoline-8-carbonitrile], the figures for the IC50 in experiment [1] (setting [3]) and in experiment [2] (setting [3]) were 5.79 nM and 4.17 nM, respectively.
Consider `Fc1ccc2ncc3nc(Cc4csnn4)n(C4CCC(F)C4)c3c2c1` (stereo not drawn) [Example 79, 8-fluoro-1-[cis-3-fluorocyclopentyl]-2-(1,2,3-thiadiazol-4-ylmethyl)-1H-imidazo[4,5-c]quinoline], for which the half-maximal inhibitory concentration (IC50) in experiment [1] (setting [3]) amounted to 9.73 nM; in experiment [2] (setting [3]), 9.75 nM.
